The IC50 is the concentration needed to halve the response being measured. For orientation: inhibition means the relative decrease from the control value, in per cent. As usually defined, the melting point is the temperature, or range, at which the solid turns liquid. The Kd is the equilibrium constant for the complex coming apart. Lower therefore signals tighter binding.

Twelve compounds from PMC6253880, “2-Amido-3-(1H-Indol-3-yl)-N-Substitued-Propanamides as a New Class of Falcipain-2 Inhibitors. 1. Design, Synthesis, Biological Evaluation and Binding Model Studies” (Molecules, 2009) can be followed below.

For data set [1], the target named is T1, falcipain-2 (FP-2) (Plasmodium falciparum, UniProt Q8I6U4).
T1 construct: made in house
T1 sequence (Q8I6U4 244-484): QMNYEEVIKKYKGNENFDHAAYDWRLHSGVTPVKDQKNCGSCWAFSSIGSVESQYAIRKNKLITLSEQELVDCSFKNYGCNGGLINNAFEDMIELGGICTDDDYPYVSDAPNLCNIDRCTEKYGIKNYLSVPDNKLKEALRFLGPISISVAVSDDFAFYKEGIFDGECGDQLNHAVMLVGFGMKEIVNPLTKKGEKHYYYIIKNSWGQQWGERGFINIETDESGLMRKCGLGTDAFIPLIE
The data set can be described thus: Enzyme inhibition assay, recombinant FP-2, substrate Z-Leu-Arg-AMC, fluorescence. The data set is classed as biochemical. The conditions noted are these: for Inhibition rate at 10 μM (%): 10 μM compound; for Inhibition rate at 10 μM (%) / inhibition at 10 µM: FP-2 30 nM, pH 5.5, 30 min preincubation. On the procedure: (§1) For the primary assay, the percent inhibitions of the compounds were measured at 10 μM. […] It is clear that the inhibitory activity of compound 2k was ~3 times higher than that of the lead compound 1, proving the validity of our chemical modifications. The anti-malarial potential of compound 1 in mice was investigated with Plasmodium berghei ANKA using a standard 4-day suppression test.
The purification and refolding of recombinant protein FP-2 was performed as described by Shenai et al. IC50 values against recombinant FP-2 were determined as described previously. FP-2 (30nM) was incubated for 30 min at room temperature in 100 mM sodium acetate, pH 5.5, 10 mM DTT, with different concentrations of tested inhibitors. Inhibitor solutions were prepared from stock in DMSO (maximum concentration of DMSO in the assay was 1%). After 30 min incubation, the substrate Z-Leu-Arg-AMC (benzoxycarbonyl-Leu-Arg-7-amino-4-methylcoumarin, Bachem AG) in the same buffer was added to a final concentration of 25 μM. The increase in fluorescence (excitation at 355 nm and emission at 460 nm) was monitored for 30 min at room temperature with an automated microtiter plate spectrofluorimeter (Molecular Devices, Flex Station). Half-maximal inhibitory concentration (IC50) was determined from plots of percent activity over compound concentration using GraphPad Prism software.

Data set [2] deals with T1, falcipain-2 (FP-2). The data set is described as follows: Surface plasmon resonance-based FP-2/ligand binding assay (Biacore 3000, CM5 chip). Conditions: SPR, immobilized FP-2, steady state affinity fitting, 25°C, HBS-EP pH 7.4. The source says:
Targeting the crystal structure of FP-2 (PDB entry 2GHU), a total of 80,000 compounds were subsequently docked and ranked according to the Glide and GAsDock software. Finally, 81 compounds were purchased and submitted to biological evaluations against FP-2. Because enzymatic assays are time-consuming, surface plasmon resonance (SPR) measurements were used for the primary screening to determine the binding affinity of these 81 candidate molecules to FP-2. […] Among the 81 compounds, the biosensor RU of compound 1 was concentration-dependent. […] Thus, compound 1 could be designated as a binder (or hit) of FP-2.
The purification and refolding of recombinant protein FP-2 was performed as described by Shenai et al. The binding affinity of compound 1 to FP-2 in vitro was determined based on surface plasmon resonance (SPR) technology. The measurement was performed using the dual flow cell Biacore 3000 instrument (Biacore AB, Uppsala, Sweden). Immobilization of FP-2 to the hydrophilic carboxymethylated dextran matrix of the sensor chip CM5 (Biacore) was carried out by the standard primary amine coupling reaction wizard. […] The equilibrium constants (KD values) evaluating the protein–ligand binding affinities were determined by the steady state affinity fitting analysis of the Biacore data.
In general terms: In SPR one partner is held on a chip, and binding of the other changes the refractive index at the surface.

In a further data set the test system is Plasmodium berghei ANKA. The data set can be described thus: Standard 4-day suppression test in mice. The data set is classed as in vivo. Conditions: 9 mg/kg body weight intragastric daily for 4 days following infection, unpublished data. The procedure: as §1
Setting [3] is: pH 5.5, read-out: Inhibition rate at 10 μM (%), 10 μM compound.
Setting [4] is: pH 5.5, 10 μM compound, read-out: Inhibition rate at 10 μM (%).

Like-named read-outs stand apart in the source and are kept apart here.

For `COC(=O)c1ccc(CNC(=O)[C@@H](Cc2c[nH]c3ccccc23)NC(=O)Oc2ccccc2)cc1` [Compound 2l, (R)-2-Phenoxycarboxamido-3-(1H-indol-3-yl)-N-(4-methoxycarbonyl-phenylmethyl)-propanamide], at falcipain-2 (FP-2) [1], the IC50 was determined as 13.3 µM and the “Inhibition rate at 10 μM (%)” value is on record as 32.9%. The inhibition at 10 µM at falcipain-2 (FP-2) [1] (setting [3]) is greater than 20%.
As to `O=C(N[C@@H](Cc1c[nH]c2ccccc12)C(=O)NCc1ccccc1)Oc1ccccc1` [Compound 2a, (S)-2-Phenoxycarboxamido-3-(1H-indol-3-yl)-N-benzylpropanamide], the inhibition at 10 µM on falcipain-2 (FP-2) [1] (setting [3]) is 14.3%.
Take `O=C(Cc1ccccc1)N[C@H](Cc1c[nH]c2ccccc12)C(=O)NCc1ccccc1` [Compound 2b, (R)-2-(2-Phenylacetamido)-3-(1H-indol-3-yl)-N-benzylpropanamide]: the “Inhibition rate at 10 μM (%)” value at falcipain-2 (FP-2) [1] stood at 25.7%. Further, on falcipain-2 (FP-2) [1] (setting [4]), the inhibition at 10 µM is greater than 20%. For the same compound, at falcipain-2 (FP-2) [1] (recombinant FP-2 30 nM, Z-Leu-Arg-AMC 25 μM, pH 5.5, read-out: IC50), the IC50 worked out at 39.4 µM.
Regarding `O=C(N[C@H](Cc1c[nH]c2ccccc12)C(=O)NCc1cccs1)Oc1ccccc1` [Compound 2i, (R)-2-Phenoxycarboxamido-3-(1H-indol-3-yl)-N-[(thiophen-2-yl)methyl]-propanamide], the melting point fell in the range of 184 to 186 °C. For the same compound, at falcipain-2 (FP-2) [1] (setting [3]), the inhibition at 10 µM was found to be 2.2%.
Compound `C#CCNC(=O)[C@@H](Cc1c[nH]c2ccccc12)NC(=O)Oc1ccccc1` [Compound 2j, (R)-2-Phenoxycarboxamido-3-(1H-indol-3-yl)-N-(prop-2-yn-1-yl)-propanamide] yielded a melting point of 173 to 177 °C. Besides, the inhibition at 10 µM on falcipain-2 (FP-2) [1] (setting [3]) amounted to 6.6%.
`O=C(N[C@H](Cc1c[nH]c2ccccc12)C(=O)NCc1ccccc1)Oc1ccccc1` [Compound 1, (R)-2-Phenoxycarboxamido-3-(1H-indol-3-yl)-N-benzylpropanamide] displayed a Kd on falcipain-2 (FP-2) [2] of 5.88 µM. The “reduction in parasitemia relative to normal control” value with Plasmodium berghei ANKA is less than 50%. Further, at falcipain-2 (FP-2) [1], the IC50 came to 29.7 µM and the “Inhibition rate at 10 μM (%)” value worked out at 29.4%. Further, on falcipain-2 (FP-2) [1] (setting [3]), the inhibition at 10 µM is greater than 20%.
Compound `O=C(N[C@H](Cc1c[nH]c2ccccc12)C(=O)Nc1ccccc1)Oc1ccccc1` [Compound 2d, (R)-2-Phenoxycarboxamido-3-(1H-indol-3-yl)-N-phenylpropanamide] had a melting point of 195 to 197 °C. The inhibition at 10 µM at falcipain-2 (FP-2) [1] (setting [3]) amounted to 11.8%.
`O=C(N[C@H](Cc1c[nH]c2ccccc12)C(=O)Nc1ccc2c(c1)OCO2)Oc1ccccc1` [Compound 2g, (R)-2-Phenoxycarboxamido-3-(1H-indol-3-yl)-N-(benzo[1,3]dioxol-5-yl)-propanamide] returned a melting point of 186 to 188 °C. Also, on falcipain-2 (FP-2) [1] (setting [3]), the inhibition at 10 µM was 3.1%.
In the case of `O=C(NCc1ccccc1)[C@@H](Cc1c[nH]c2ccccc12)NCc1ccccc1` [Compound 2c, (R)-2-Benzylamino-3-(1H-indol-3-yl)-N-benzyl-propanamide], the melting point lay within 38 to 40 °C. Also, the inhibition at 10 µM on falcipain-2 (FP-2) [1] (setting [4]) is 13%.
Regarding `O=C(N[C@H](Cc1c[nH]c2ccccc12)C(=O)NCc1ccc([N+](=O)[O-])cc1)Oc1ccccc1` [Compound 2k, (R)-2-Phenoxycarboxamido-3-(1H-indol-3-yl)-N-[(4-nitrophenyl)methyl]-propanamide], the IC50 on falcipain-2 (FP-2) [1] turned out to be 10 µM. Further, on falcipain-2 (FP-2) [1] (ratio of inhibitory activity versus compound 1), the “FP-2 inhibitory activity relative to lead compound 1 (fold better)” value is ~ 3.
Consider `O=C(N[C@H](Cc1c[nH]c2ccccc12)C(=O)Nc1ccc(F)cc1)Oc1ccccc1` [Compound 2e, (R)-2-Phenoxycarboxamido-3-(1H-indol-3-yl)-N-(4-fluorophenyl)-propanamide], for which the melting point is 185 to 189 °C. The inhibition at 10 µM on falcipain-2 (FP-2) [1] (setting [3]) turned out to be 3.1%.
Compound `CCOc1ccc(NC(=O)[C@@H](Cc2c[nH]c3ccccc23)NC(=O)Oc2ccccc2)cc1` [Compound 2f, (R)-2-Phenoxycarboxamido-3-(1H-indol-3-yl)-N-(4-ethoxyphenyl)-propanamide] yielded a melting point of 180 to 184 °C. For the same compound, the inhibition at 10 µM at falcipain-2 (FP-2) [1] (setting [3]) was 13.6%.
